This note sets out measurements from patent US20240018470A1, “METHOD OF MANIPULATING PLURIPOTENCY IN CELLS” (YALE UNIVERSITY, priority 2022, published 2024).

In data set [1] the test system is Xenopus embryos. Nature of the data set: Gastrulation scoring (incomplete blastopore closure) in treated or kcnh6-depleted embryos. In kind it is in vivo, Xenopus tropicalis. To be noted: for inability to complete gastrulation: kcnh6 depletion, injected at one-cell stage. Here is the method: All injections of Xenopus embryos were performed at the one-cell stage using a fine glass needle and Picospritzer system. A kcnh6 translation blocking (kcnh6 MO, 5′-[…]-3′, SEQ ID NO:1) and a scrambled morpholino oligonucleotide were obtained from Gene Tools LLC and injected at 10 ng to deplete kcnh6 or as a control, respectively. CRISPR sgRNAs for kcnh6 targeted either exon 3 or exon 4 based on the v7.1 gene model of the X. tropicalis genome (CRex3: 5′-[…]-3′, SEQ ID NO:2 and CRex4: 5′-[…]-3′, SEQ ID NO:3). CRISPR sgRNAs for cacna1c (5′-[…]-3′, SEQ ID NO:4) and cacna1g (5′-[…]-3′, SEQ ID NO:5) were designed from the v7.1 model of the Xenopus tropicalis genome. For F0 CRISPR knockdown, embryos were injected with 1.5 ng Cas9 Protein (PNA-Bio) and 400 pg of targeting sgRNA and raised to desired stages. […] Full length human KCNH6 (NM 030779.3; cloned in pCS107), GCaMP6 (subcloned in pCSDest) and mCherry cDNAs (Addgene #34935; in pCS2+), were used to generate capped mRNAs in vitro by first linearizing with appropriate restriction enzymes and then transcribing with the mMessage machine kit (Ambion). mRNAs were injected at 3 pg (human KCNH6), 150 pg (GCaMP6) and 150 pg (mCherry) per embryo. Embryos were raised at 21° C. to allow time for sufficient expression levels at blastula/gastrula stages.
(§1) Normal embryonic medium is 1/9× modified Ringer's (MR) containing 11 mM NaCl, 0.2 mM KCl, 0.2 mM CaCl2), 0.1 mM Mg2Cl and 0.55 mM HEPES. To allow Ergtoxin to penetrate the embryos, the present study manually removed the vitelline envelope of stage 8 embryos and incubated embryos in 1/9×MR containing 50 nM Ergtoxin (Alomone STE-450) until stage 12. Embryos were then transferred back into 1/9×MR lacking Ergtoxin to develop until stage 45 in order to score organ situs. Barium chloride was applied into the medium at 20 mM and embryos were thoroughly rinsed in 1/9×MR after each incubation period for further development in Ba2+-free medium. For extracellular K^+ manipulations, the KCl concentration in 1/9×MR was modified from 0.2 mM (normal) to 20 mM (high) or 0 mM (low). The ionophore valinomycin (ACROS) and L-type VGCC blocker Nifedipine (ACROS) were diluted in DMSO as stock solutions and applied to embryos in 1/9×MR at 2 nM and 10 μM respectively. Treatments performed during gastrulation were applied from stage 8 through stage 12, and embryos were then rinsed thoroughly and returned into 1/9×MR. For rapamycin, the present study created a standard stock solution of 50 mg/ml in DMSO. The stock solution was diluted 1:2500 in the appropriate embryonic media (final 20 μg/ml). Embryos were treated at stage 7 and then fixed at stage 11 for in situ hybridization.
(§2) In experiments where embryos were evaluated for phenotypes and scored (gastrulation, left-right patterning, in situ hybridizations) the present study carried out three to five biological replicates and Fisher's exact test to evaluate statistical significance. The animal cap experiment was performed twice with a total score of four to eight animal caps per experiment. For the calcium transient analyses, data was collected from three to five embryos in each experiment in three independent experiments, and statistical analyses on GCaMP/mCherry fluorescence intensity as well as Ca^2+ transient area were performed using student's t-test. For whole cell electrophysiological recordings, three to five embryos (two cells each) were examined for their membrane potential and statistical significance was tested by student's t-test. Graphs were designed using GraphPad Prism software. Models were created with BioRender.com.

Data set [2] deals with Xenopus embryos. Nature of the data set: Organ situs (left-right patterning) scoring in stage 45 tadpoles. In kind it is in vivo, Xenopus tropicalis. Conditions: for abnormal organ situs: kcnh6 depletion, injected at one-cell stage. Here is the method:
Stage 45 Xenopus embryos were paralyzed with benzocaine or tricaine and scored with a light stereomicroscope. Cardiac looping was determined by position of the outflow tract; D-loop: rightward, L-loop: leftward; A-loop: midline. Normal intestinal looping was scored as counter-clockwise rotation of the gut, while abnormal intestinal looping was scored as completely inverse gut rotation (clockwise) or complete lack of looping (un-looped). While a completely inverted gut rotation is clearly an abnormality of LR patterning, an unlooped gut is less clear so the present study only considered an unlooped gut as abnormal situs when combined with abnormal placement (left-sided or midline) of the gall bladder. To quantify total abnormal organ situs, each tadpole was counted only once, regardless of whether multiple organs were affected.
as §1, §2

The subject of data set [3] is Xenopus embryos. Nature of the data set: Whole mount in situ hybridization for germ layer and pluripotency markers. Conditions: for expression of ectodermin and myf5 on co-depletion in kcnh6 depleted embryos: CRISPR co-depletion. In kind it is in vivo, Xenopus tropicalis. The source says: In order to generate a full-length antisense probe for X. tropicalis kcnh6, kcnh6 cDNA was cloned from stage 45 tadpole whole mRNA using primers […] ID NO:10) and […] ID NO:11) (XM_012952904.1). It was noted that kcnh6 had been misannotated as kcnh2 in the v7.1 model of the X. tropicalis genome (The present study used NCBI Annotation XP_012808358.2 to identify KCNH6). […] GRPs were dissected post fixation and prior to dehydration to detect dandy. To detect putative gene expression in the prospective endoderm (mixer, vegT, kcnh6) gastrula stage embryos were bisected to facilitate better probe access. Briefly, whole mount in situ hybridization of digoxigenin-labeled antisense probes was performed overnight, the labelled embryos were then washed, incubated with anti-digoxigenin-AP Fab fragments (Roche 11093274910), and signal was detected using BM-purple (Roche 11442074001). Normal embryonic medium is 1/9× modified Ringer's (MR) containing 11 mM NaCl, 0.2 mM KCl, 0.2 mM CaCl2), 0.1 mM Mg2Cl and 0.55 mM HEPES. […] For extracellular K^+ manipulations, the KCl concentration in 1/9×MR was modified from 0.2 mM (normal) to 20 mM (high) or 0 mM (low). […] For rapamycin, the present study created a standard stock solution of 50 mg/ml in DMSO. The stock solution was diluted 1:2500 in the appropriate embryonic media (final 20 μg/ml). […] In experiments where embryos were evaluated for phenotypes and scored (gastrulation, left-right patterning, in situ hybridizations) the present study carried out three to five biological replicates and Fisher's exact test to evaluate statistical significance. The animal cap experiment was performed twice with a total score of four to eight animal caps per experiment. […] For whole cell electrophysiological recordings, three to five embryos (two cells each) were examined for their membrane potential and statistical significance was tested by student's t-test. Graphs were designed using GraphPad Prism software. Models were created with BioRender.com.

Data set [4] relates to animal pole cells (prospective ectoderm). Briefly: Intracellular Vm recordings in animal pole cells. In kind it is in vivo, Xenopus tropicalis. To be noted: high K^+ and ½ sodium replacement with choline; stage 9 animal pole. From the text: For recordings, devitellinized, stage 10 kcnh6 or control MO injected embryos were mounted into non-toxic clay with their animal pole exposed and covered with 1/9×MR. To investigate the resting potential, animal pole cells were impaled with a high-impedance (˜70 Me), sharp microelectrode filled with 3 M KCl for intracellular recordings. The recordings were made using an Axon 200B amplifier and digitized using a Digidata 1320 digitizer. Jclamp software for Windows was used in current clamp mode. All electrodes were zeroed just before entry into the cells.
For the series of intracellular recordings in high K^+ and choline treated embryos, stage 8-9 embryos were impaled similarly with an electrode of […]. These recordings were made using a HEKA EPC10 amplifier. The present study used HEKA PatchMaster v2x67 software for Windows. […]
In experiments where embryos were evaluated for phenotypes and scored (gastrulation, left-right patterning, in situ hybridizations) the present study carried out three to five biological replicates and Fisher's exact test to evaluate statistical significance. […] For the calcium transient analyses, data was collected from three to five embryos in each experiment in three independent experiments, and statistical analyses on GCaMP/mCherry fluorescence intensity as well as Ca^2+ transient area were performed using student's t-test. […]

In a further data set the test system is hESCs. Nature of the data set: hESC pluripotency marker immunofluorescence. Conditions: hESCs, rapamycin 100 nM, 5 days. In kind it is cell-based, human. Here is the method: hESCs were grown in mTeSR1 ([…] Technologies) in tissue culture dishes coated with Matrigel (Corning; 1:200 in DMEM/F12) and kept at 37° C., 5% CO2. The cell lines used were ESI017 (ESIBIO) and H9.
Cells were dissociated with accutase and seeded onto 8 well imaging slides (ibidi 80826) at a density of 4-6×10^4/cm^2. Cells were seeded and maintained in Rock-inhibitor Y27672 (MCE; 10 μM) to increase survival and the uniformity of response. Treatments with 1 mM BaCl2 or 10 or 25 nM Ergtoxin or 100 nM rapamycin were initiated 4 hours after seeding. Differentiation was initiated 24 hours after seeding where indicated. To initiate differentiation, the media was replenished with/without BaCl2 or Ergtoxin and treated with the indicated growth factors or small molecules. Cells were incubated for the indicated times without media change before fixation.
Cells were fixed for 30 min in 4% paraformaldehyde, rinsed twice with DPBS (without Ca^2+ and Mg^2+, denoted DPBS^−/−), and blocked for 30 min at room temperature. The blocking solution contained 3% donkey serum and 0.1% Triton X-100 in 1×DPBS^−/−. After blocking, the cells were incubated with primary antibodies at room temperature for 2 hours. Antibodies and concentrations are listed below. Cells were washed three times with DPBST (1×DPBS^−/− with Tween 20) and incubated with secondary antibodies (AlexaFluor 488 A21206, AlexaFluor 555 A31570 and A21432, and AlexaFluor 647 A31571, Thermo Fisher; 1:500) and DAPI for 30 min at room temperature. After secondary antibody incubation, samples were washed in DPBST and then DPBS at room temperature.
Images were acquired using a 20×, NA 0.75 objective on an Olympus IX83 inverted epifluorescence microscope or an Olympus/Andor spinning disk confocal microscope. Cell segmentation was performed using ilastik software. This segmentation was cleaned (to remove debris and to separate merged cells) and mean nuclear protein intensities as well as standard errors were quantified using a custom MATLAB code. Nuclear intensities were normalized by DAPI to correct for intensity variation due to optics. […]

Setting [5] is: nifedipine-treated (10 μM) kcnh6 CR embryos.
[6] abbreviates: nifedipine-treated (10 μM) kcnh6 MO embryos.

As for `[Ba+2].[Cl-].[Cl-]` [Barium, Barium chloride], the “embryos that failed to complete gastrulation” value in the data set with Xenopus embryos [1] (depolarizing treatment at blastula/gastrula stages (stage 8-12), barium chloride 20 mM or KCl 20 mM, ±SEM) amounted to 37±3%. Also, the “embryos with misplacement of organs relative to the left-right axis (defective organ situs)” value in the data set with Xenopus embryos [2] (depolarizing treatment at blastula/gastrula stages, scored at stage 45, ±SEM) turned out to be 23±2%. In the data set on Xenopus embryos [3] (depolarized embryos, stage 10), the “markers of dorsal (gsc, nodal3) and ventral mesoderm (vent2)” value is reported as “unaffected”; the “paraxial mesoderm fates (myoD, myf5, tbxt)” value was “lost”.
In data set [4], `C[N+](C)(C)CCO` [choline] displayed a Vm of −41±4 mV.
For the compound `COC(=O)C1=C(C)NC(C)=C(C(=O)OC)C1c1ccccc1[N+](=O)[O-]` [nifedipine], in the data set on Xenopus embryos [3] (setting [5]), the “embryos with absent ectodermin” value is recorded as 16±7% and the “embryos with myf5 lost” value stood at 16±1%. Also, in the data set on Xenopus embryos [3] (setting [6]), the “embryos with absent ectodermin” value is 17±3% and the “embryos with myf5 lost” value came out at 18±5%.
On to `CO[C@H]1C[C@@H]2CC[C@@H](C)[C@@](O)(O2)C(=O)C(=O)N2CCCC[C@H]2C(=O)O[C@H]([C@H](C)C[C@@H]2CC[C@@H](O)[C@H](OC)C2)CC(=O)[C@H](C)/C=C(\C)[C@@H](O)[C@@H](OC)C(=O)[C@H](C)C[C@H](C)/C=C/C=C/C=C/1C` [rapamycin], for which the “final cell numbers per well” value in the data set with hESCs was “reduce the final cell numbers per well”.
With `CC(C)[C@@H]1NC(=O)[C@H](C)OC(=O)[C@@H](C(C)C)NC(=O)[C@@H](C(C)C)OC(=O)[C@H](C(C)C)NC(=O)[C@H](C)OC(=O)[C@@H](C(C)C)NC(=O)[C@@H](C(C)C)OC(=O)[C@H](C(C)C)NC(=O)[C@H](C)OC(=O)[C@@H](C(C)C)NC(=O)[C@@H](C(C)C)OC1=O` [valinomycin], the “gastrulation defect in kcnh6 CR embryos” value in the data set with Xenopus embryos [1] (kcnh6 CR embryos treated with valinomycin 2 nM, stage 8-12) came out at 16±7%.
Take “CR-ex3: CRISPR sgRNA targeting kcnh6 exon 3, SEQ ID NO:2, injected with Cas9 protein (guide GGAATAAGGGGTGAAGACAGCGG; sgRNA injected with Cas9 protein, chemistry not given here; the letters are possibly those of the target site)”: the “inability to complete gastrulation” value in the data set with Xenopus embryos [1] is on record as 27±4%. Further, the abnormal organ situs in the data set with Xenopus embryos [2] was 43±12%.
Taken in the same sequence, the figures for “CR-ex4: CRISPR sgRNA targeting kcnh6 exon 4, SEQ ID NO:3, injected with Cas9 protein (guide AGGGCGCTCTACATTTCCAATGG; sgRNA injected with Cas9 protein, chemistry not given here; the letters are possibly those of the target site)” were 29±5% and 19±1%.
As to “cacna1c: CRISPR sgRNA for cacna1c (Cav1.2; L-type), SEQ ID NO:4 (guide GCAGACGGGGGCAGCGCCATTGG; sgRNA chemistry not given here; the letters are possibly those of the target site)”, in the data set on Xenopus embryos [3], the “expression of ectodermin and myf5 on co-depletion in kcnh6 depleted embryos” value is reported as “rescued expression”.
On to “cacna1g: CRISPR sgRNA for cacna1g (Cav3.1; T-type), SEQ ID NO:5 (guide GGTTAATGGCTCTCAGCGGGCGG; sgRNA chemistry not given here; the letters are possibly those of the target site)”, for which, in the data set on Xenopus embryos [3], the “expression of ectodermin and myf5 on co-depletion in kcnh6 depleted embryos” value is “no rescue”.
